Patent US6482921B1, “Uridyl peptide antibiotic (UPA) derivatives, their synthesis and use” (Essential Therapeutics, Inc., priority 1999, dated 2002)
≈ marks a conversion by molar mass, not a printed value.

How the values were obtained:
Type in all cases: cell-based
[1] = tested on: Pseudomonas aeruginosa PAM 1020; assay: MIC broth microdilution, P. aeruginosa PAM 1020 (wild type); conditions: P. aeruginosa PAM 1020
[2] = tested on: Pseudomonas aeruginosa PAM 1154; assay: MIC broth microdilution, P. aeruginosa PAM 1154 (OprM::Hg); conditions: P. aeruginosa PAM 1154 OprM::Hg
[3] = tested on: Pseudomonas aeruginosa PAM 1135; assay: MIC broth microdilution, P. aeruginosa PAM 1135 (high level UPA resistance); conditions: P. aeruginosa PAM 1135 UPA1^r
[4] = tested on: Pseudomonas aeruginosa PAM 1323; assay: MIC broth microdilution, P. aeruginosa PAM 1323 (medium level UPA resistance)
Description: Compounds were tested against several panels of bacteria. In a first panel, Table 3, several strains of Pseudomonas aeruginosa, Escherichia coli and Staphylococcus aureus were employed as the target bacteria.
For the bacteria in Table 3, the assay was performed in Mueller-Hinton Broth (MHB) with a final bacterial inoculum of 5×10^5 CFU/ml and a final volume of 100 μl. Control drugs, including imipenem and pacidimycin 4, and the test compounds were prepared at a concentration which was twice the desired final concentration (256 μg/ml). Dilution of the controls and the test compounds was accomplished directly on the test plates by serial 2-fold dilution using a multi-channel pipette. Both a positive and a negative growth control was included in each plate.
The bacterial inocula were prepared as follows. Bacterial strains were grown overnight at 35° C. in MHB. […] The culture was then diluted 1:10 and allowed to grow for an additional one hour at 35° C. in a shaking incubator. The inocula were then prepared by diluting the early log phase (one hour) cultures 1:2000 with fresh MHB. A volume of 50 μl of the inocula was added to each well, resulting in an inoculum of approximately 5×10^5 CFU/ml. The exact inocula were determined by putting 10 μl of 10-fold serial dilution of the bacterial suspensions onto TSA. After overnight incubation at 35° C., colony-forming units were counted manually.
The microtiter plates were incubated for 20 hours at 35° C. and were then read using a microtiterplate reader (Molecular Devices) at 650 nm as well as being visually observed using a microtiterplate reading mirror.

Escherichia Coli MC 4100 = assay: MIC broth microdilution, E. coli MC 4100 (wild type); conditions: E. coli MC 4100
[5] = tested on: Escherichia Coli MC 4100 AcrAB; assay: MIC broth microdilution, E. coli MC 4100 AcrAB (ΔAcrAB); conditions: E. coli AcrAB
[6] = tested on: Escherichia Coli MC 4100 AcrAB UPA3r; assay: MIC broth microdilution, E. coli MC 4100 AcrAB UPA3r (ΔAcrAB, UPA resistant); conditions: E. coli AcrAB UPA3^r
[7] = tested on: Staphylococcus aureus ATCC 29213; assay: MIC broth microdilution, S. aureus ATCC 29213 (wild type); conditions: S. aureus ATCC 29213
[8] = tested on: Staphylococcus aureus 8325-4; assay: MIC broth microdilution, S. aureus 8325-4 (wild type); conditions: S. aureus 8325-4
[9] = tested on: Pasteurella multocida pm002; assay: MIC broth microdilution, P. multocida pm002 (wild type)

Row | Compound | MIC (μg/ml) Broth microdilution [1] | MIC (μg/ml) Broth microdilution [2] | MIC (μg/ml) Broth microdilution [3] | MIC (μg/ml) Broth microdilution [4] | MIC (μg/ml) Broth microdilution (Escherichia Coli MC 4100) | MIC (μg/ml) Broth microdilution [5] | MIC (μg/ml) Broth microdilution [6] | MIC (μg/ml) Broth microdilution [7] | MIC (μg/ml) Broth microdilution [8] | MIC (μg/ml) Broth microdilution [9]
1 | 1-[5′-[(2S,3S)-N^2-[N-[[(1S)-1-Carboxy-2-indol-3-ylethyl]carbamoyl]-L-alanyl]-N^3-L-3-hydroxyphenylalanyl-N^3-methyl-2,3-diaminobutyramidol-3′,5′-dideoxy-α-L-arabinofuranosyl]uracil [Compound 103] | 16 µg/mL | 8 µg/mL | >512 µg/mL | 512 µg/mL | 512 µg/mL | 2 µg/mL | 32 µg/mL | 512 µg/mL | 256 µg/mL | 256 µg/mL
2 | 1-[5′-[(2S,3S)-N^3-L-Alanyl-N^2-[(2R)-2-benzyl-N-[(1S)-1-carboxy-2-indol-3-ylethyl]succinimoyl]-N^3-methyl-2,3-diaminobutyramido]-3′,5′-dideoxy-α-L-arabinofuranosyl]uracil [Compound 154] | 64 µg/mL | 8 µg/mL | >512 µg/mL | >512 µg/mL | >512 µg/mL | 8 µg/mL | 128 µg/mL | >512 µg/mL | >512 µg/mL | >512 µg/mL
3 | 1-[5′-[(2S,3S)-N^3-L-Alanyl-N^2-[N-([(1S)-1-carboxy-phenethyl]carbamoyl]-L-leucinyl]-N^3-methyl-2,3-diaminobutyramido]-3′,5′-dideoxy-α-L-arabinofuranosyl]uracil [Compound 166] | >512 µg/mL | >512 µg/mL | >512 µg/mL | >512 µg/mL | >512 µg/mL | 16 µg/mL | 256 µg/mL | >512 µg/mL | >512 µg/mL | 512 µg/mL
4 | 1-[5′[(2S,3S)-N^2-[N-[[(1S)-1-Carboxy-4-hydroxyphenethyl]carbamoyl]-L-4-fluorophenylalanyl)-N^3-L-phenylalanyl-N^3-methyl-2,3-diaminobutyramido]-3′,5′-dideoxy-β-L-arabinofuranosyl]uracil [Compound 106] | 32 µg/mL | 64 µg/mL | 256 µg/mL | 256 µg/mL | 512 µg/mL | 8 µg/mL | 512 µg/mL | >512 µg/mL | >512 µg/mL | 512 µg/mL
5 | CC(N)C(=O)N(C)C(C)C(NC(=O)C(Cc1ccc(F)cc1)NC(=O)NC(C(=O)O)c1ccccc1)C(=O)NCC1CC(O)C(n2ccc(=O)[nH]c2=O)O1 (mixture of isomers) [Compound 141, 1-[5′-[(2S,3S)-N^3-L-Alanyl-N^2-[N-[[α(R,S)-1-carboxy-phenmethyl]carbamoyl]-L-4-fluorophenylalanyl]-N^3-methyl-2,3-diaminobutyramido]-3′,5′-dideoxy-α-L-arabinofuranosyl]uracil] | >512 µg/mL | 512 µg/mL | >512 µg/mL | >512 µg/mL | >512 µg/mL | 16 µg/mL | >512 µg/mL | >512 µg/mL | >512 µg/mL | >512 µg/mL
6 | CC(N)C(=O)N(C)C(C)C(NC(=O)C(Cc1ccc(F)cc1)NC(=O)NC(C(=O)O)c1ccccc1)C(=O)NCC1CC(O)C(n2ccc(=O)[nH]c2=O)O1 (mixture of isomers) [Compound 142, 1-[5′-[(2S,3S)-N^3-L-Alanyl-N^2-[N-[[α(S,R)-1-carboxy-phenmethyl]carbamoyl]-L-4-fluorophenylalanyl]-N^3-methyl-2,3-diaminobutyramidol-3′,5′-dideoxy-α-L-arabinofuranosyl]uracil] | 512 µg/mL | 64 µg/mL | >512 µg/mL | >512 µg/mL | 512 µg/mL | 4 µg/mL | 32 µg/mL | >512 µg/mL | >512 µg/mL | >512 µg/mL
7 | CC(C(NC(=O)C(Cc1ccccc1)NC(=O)NC(Cc1c[nH]c2ccccc12)C(=O)O)C(=O)NCC1CC(O)C(n2ccc(=O)[nH]c2=O)O1)N(C)C(=O)C(N)CCCCN [Compound 147, 1-[5′-[(2S,3S)-N^2-[N-[[(1S)-1-Carboxy-2-indol-3-ylethyl]carbamoyl]-L-phenylalanyl]-N^3-L-lysinyl-N^3-methyl-2,3-diaminobutyramido]-3′,5′-dideoxy-α-L-arabinofuranosyl]uracil] | 32 µg/mL (≈ 37.8 µM) | 16 µg/mL (≈ 18.9 µM) | >512 µg/mL | – | >512 µg/mL | >512 µg/mL | >512 µg/mL | >512 µg/mL | >512 µg/mL | –
8 | CC(C)C[C@H](NC(=O)N[C@@H](Cc1c[nH]c2ccccc12)C(=O)O)C(=O)N[C@H](C(=O)NC[C@H]1C[C@@H](O)[C@H](n2ccc(=O)[nH]c2=O)O1)[C@H](C)N(C)C(=O)[C@H](C)N [Compound 170, 1-[5′-[(2S,3S)-N^3-L-Alanyl-N^2-[N-[[(1S)-1-carboxy-2-indol-3-ylethyl)carbamoyl]-L-leucinyl]-N^3-methyl-2,3-diaminobutyramido]-3′,5′-dideoxy-α-L-arabinofuranosyl]uracil] | 64 µg/mL (≈ 84.7 µM) | 4 µg/mL (≈ 5.29 µM) | >512 µg/mL | – | 128 µg/mL (≈ 169 µM) | 2 µg/mL (≈ 2.65 µM) | 1 µg/mL (≈ 1.32 µM) | >512 µg/mL | >512 µg/mL | –
9 | C[C@H](NC(=O)N[C@@H](Cc1c[nH]c2ccccc12)C(=O)O)C(=O)N[C@H](C(=O)NC[C@H]1C[C@@H](O)[C@H](n2ccc(=O)[nH]c2=O)O1)[C@H](C)N(C)C(=O)[C@@H](C)N [Compound 171, 1-[5′-[(2S,3S)-N^3-D-Alanyl-N^2-[N-[[(1S)-1-carboxy-2-indol-3-ylethyl]carbamoyl]-L-alanyl]-N^3-methyl-2,3-diaminobutyramido]-3′,5′-dideoxy-α-L-arabinofuranosyl]uracil] | 512 µg/mL (≈ 717 µM) | 32 µg/mL (≈ 44.8 µM) | >512 µg/mL | – | >512 µg/mL | 16 µg/mL (≈ 22.4 µM) | 128 µg/mL (≈ 179 µM) | >512 µg/mL | >512 µg/mL | –
10 | C[C@H](N)C(=O)N(C)[C@@H](C)[C@H](NC(=O)[C@H](C)NC(=O)N[C@@H](Cc1c[nH]c2ccccc12)C(=O)O)C(=O)NC[C@@H]1C[C@@H](O)[C@@H](n2ccc(=O)[nH]c2=O)O1 [Compound 172, 1-[5′-[(2S,3S)-N^3-L-Alanyl-N^2-[N-[[(1S)-1-carboxy-2-indol-3-ylethyl]carbamoyl]-L-alanyl]-N^3-methyl-2,3-diaminobutyramido]-3′,5′-dideoxy-α-D-ribofuranosyl]uracil] | 64 µg/mL (≈ 89.7 µM) | 4 µg/mL (≈ 5.6 µM) | >512 µg/mL | – | 16 µg/mL (≈ 22.4 µM) | 128 µg/mL (≈ 179 µM) | 16 µg/mL (≈ 22.4 µM) | 512 µg/mL (≈ 717 µM) | >512 µg/mL | –
11 | Dihydropacidamycin 1 [Compound 5] | 64 µg/mL | 16 µg/mL | >512 µg/mL | – | 512 µg/mL | 8 µg/mL | 32 µg/mL | >512 µg/mL | >512 µg/mL | –
